In PubChem BioAssay AID2060599 (Molecular Pharmacology Branch, DTP, NCI, 2025):
pIC50: −log10 of the molar value. Several values for one entry are separate records, joined by “and”; a condition that tells them apart may be missing. Equal entries are not always repeated.

Test system: 817829-284-R-J1-PDC complex spheroids, viability
Experiment: Anticancer human tumor 817829-284-R-J1-PDC patient-derived colon adenocarcinoma cell line growth inhibition [CLK]
Conditions: for viability, T/C: stronger effect = lower value; active means viability on the fitted dose curve at most 10% of control; inactive means the rest
Summary of the method: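 Multi-cell-type spheroids combined patient-derived tumor cells with HUVEC endothelial cells and human mesenchymal stem cells. Paired agents were dosed in half-log steps down from about clinical Cmax, or from 10 microM where Cmax was unknown.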

[1] = curve of first compound, second compound 0.0316 µM
[2] = curve of first compound, second compound 0.1 µM
[3] = curve of first compound, second compound 0.316 µM
[4] = curve of first compound, second compound 1 µM
[5] = curve of first compound, second compound 3.16 µM
[6] = curve of first compound, second compound 10 µM
[7] = second compound 0.0316 µM, first compound 0.0316 µM
[8] = second compound 0.0316 µM, first compound 0.1 µM
[9] = second compound 0.0316 µM, first compound 0.316 µM
[10] = second compound 0.0316 µM, first compound 1 µM
[11] = second compound 0.0316 µM, first compound 3.16 µM
[12] = second compound 0.0316 µM, first compound 10 µM
[13] = second compound 0.1 µM, first compound 0.0316 µM
[14] = second compound 0.1 µM, first compound 0.1 µM
[15] = second compound 0.1 µM, first compound 0.316 µM
[16] = second compound 0.1 µM, first compound 1 µM
[17] = second compound 0.1 µM, first compound 3.16 µM
[18] = second compound 0.1 µM, first compound 10 µM
[19] = second compound 0.316 µM, first compound 0.0316 µM
[20] = second compound 0.316 µM, first compound 0.1 µM
[21] = second compound 0.316 µM, first compound 0.316 µM
[22] = second compound 0.316 µM, first compound 1 µM
[23] = second compound 0.316 µM, first compound 3.16 µM
[24] = second compound 0.316 µM, first compound 10 µM
[25] = second compound 1 µM, first compound 0.0316 µM
[26] = second compound 1 µM, first compound 0.1 µM
[27] = second compound 1 µM, first compound 0.316 µM
[28] = second compound 1 µM, first compound 1 µM
[29] = second compound 1 µM, first compound 3.16 µM
[30] = second compound 1 µM, first compound 10 µM
[31] = second compound 3.16 µM, first compound 0.0316 µM
[32] = second compound 3.16 µM, first compound 0.1 µM
[33] = second compound 3.16 µM, first compound 0.316 µM
[34] = second compound 3.16 µM, first compound 1 µM
[35] = second compound 3.16 µM, first compound 3.16 µM
[36] = second compound 3.16 µM, first compound 10 µM
[37] = second compound 10 µM, first compound 0.0316 µM
[38] = second compound 10 µM, first compound 0.1 µM
[39] = second compound 10 µM, first compound 0.316 µM
[40] = second compound 10 µM, first compound 1 µM
[41] = second compound 10 µM, first compound 3.16 µM
[42] = second compound 10 µM, first compound 10 µM
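Further: spheroids exposed to the agents for seven days before readout.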

CC(Nc1ccc2c(c1)OCCn1cc(N3C(=O)OCC3C(F)F)nc1-2)C(N)=O (stereo not given)
5.85 and 6.08: pIC50 (curve of compound)
inactive: viability, T/C (compound 0.0316 µM) 62.2% and 116% | viability, T/C (compound 0.1 µM) 92% and 69.5% | viability, T/C (compound 0.316 µM) 72.2% and 60.7% | viability, T/C (compound 1 µM) 51.6% and 59.1% | viability, T/C (compound 3.16 µM) 52.4% and 39.5% | viability, T/C (compound 10 µM) 35.8% and 37.7%

CC1COCCN1c1cc(C2(S(C)(=N)=O)CC2)nc(-c2ccnc3[nH]ccc23)n1 (stereo not given) + CN1CCN(c2cc(C(=O)Nc3cc4cc(-c5cnn(C)c5)ccc4cn3)ccn2)CC1
active: viability, T/C [11] 6.12% | viability, T/C [12] 3.77% | viability, T/C [16] 8.16% | viability, T/C [17] 4.67% | viability, T/C [18] 3.28% | viability, T/C [19] 1.94% | viability, T/C [20] 2.26% | viability, T/C [21] 1.9% | viability, T/C [22] 2.08% | viability, T/C [23] 1.38% | viability, T/C [24] 0.6% | viability, T/C [25] 0.08% | viability, T/C [26] 0.15% | viability, T/C [27] 0.11% | viability, T/C [28] 0.08% | viability, T/C [29] 0.07% | viability, T/C [30] 0.08% | viability, T/C [31] 0.53% | viability, T/C [32] 0.17% | viability, T/C [33] 0.15% | viability, T/C [34] 0.14% | viability, T/C [35] 0.14% | viability, T/C [36] 0.1% | viability, T/C [37] 0.09% | viability, T/C [38] 0.12% | viability, T/C [39] 0.13% | viability, T/C [40] 0.13% | viability, T/C [41] 0.15% | viability, T/C [42] 0.14%
inactive: viability, T/C [7] 57.2% | viability, T/C [8] 48.3% | viability, T/C [9] 34.6% | viability, T/C [10] 20.3% | viability, T/C [13] 14.8% | viability, T/C [14] 15.1% | viability, T/C [15] 11.9%
> 7.50: pIC50 [2] | pIC50 [3] | pIC50 [4] | pIC50 [5] | pIC50 [6]
7.07: pIC50 [1]

CCN1CCN(Cc2ccc(Nc3ncc(F)c(-c4cc(F)c5nc(C)n(C(C)C)c5c4)n3)nc2)CC1
inactive: viability, T/C (compound 0.00316 µM) 79.4% | viability, T/C (compound 0.01 µM) 55.3% | viability, T/C (compound 0.0316 µM) 57.5% | viability, T/C (compound 0.1 µM) 50.8% | viability, T/C (compound 0.316 µM) 85.4% | viability, T/C (compound 1 µM) 39.3%
< 6.00: pIC50 (curve of compound)

CC(CO)NC(=O)c1cc(-c2ccc(Cl)cc2)nn(-c2cnn(C)c2)c1=O (stereo not given) + CNC(=O)c1ccc(Nc2nc(OC3CCCC3)c3c(-c4ccc5nc(C)oc5c4)c[nH]c3n2)c(OC)c1
inactive: viability, T/C [7] 38.7% | viability, T/C [8] 34.8% | viability, T/C [9] 32.9% | viability, T/C [10] 31% | viability, T/C [11] 28.5% | viability, T/C [12] 23.4% | viability, T/C [13] 24.2% | viability, T/C [14] 23.8% | viability, T/C [15] 27.7% | viability, T/C [16] 21.3% | viability, T/C [17] 39.8% | viability, T/C [18] 21.4% | viability, T/C [19] 27.4% | viability, T/C [20] 29.7% | viability, T/C [21] 24.1% | viability, T/C [22] 24.7% | viability, T/C [23] 16.1% | viability, T/C [24] 19.2% | viability, T/C [25] 14.1% | viability, T/C [26] 36.8% | viability, T/C [27] 16% | viability, T/C [28] 16.2% | viability, T/C [29] 15.8% | viability, T/C [30] 10.7% | viability, T/C [31] 22.3% | viability, T/C [32] 20.2% | viability, T/C [33] 18.7% | viability, T/C [34] 17.9% | viability, T/C [35] 18.6% | viability, T/C [36] 19.4% | viability, T/C [37] 24.3% | viability, T/C [38] 16.7% | viability, T/C [39] 41.6% | viability, T/C [40] 18.7% | viability, T/C [41] 14.1% | viability, T/C [42] 16.8%
> 7.50: pIC50 [1] | pIC50 [2] | pIC50 [3] | pIC50 [4] | pIC50 [5] | pIC50 [6]

Nc1ccn(C2OC(CO)C(O)C2(F)F)c(=O)n1 (stereo not given)
> 7.50: pIC50 (curve of compound)
active: viability, T/C (compound 0.0316 µM) 4.87% and 7.45% | viability, T/C (compound 0.1 µM) 5.51% and 7.25% | viability, T/C (compound 0.316 µM) 4.21% and 7.26% | viability, T/C (compound 1 µM) 3.92% and 6.91% | viability, T/C (compound 3.16 µM) 3.8% and 5.67% | viability, T/C (compound 10 µM) 2.53% and 4.69%
